Measurements reported in patent US20070155660A1, “Inhibition of voluntary ethanol consumption with selective melanocortin 4-receptor agonists” (priority 2003, published 2007).
Numbered stars: 1 amine (or outer) side, 2 acyl side, 3 side chain; on linkers, the order of the positions; unused ones are H or OH. Bridge positions count the residues as written; N and C are the ends. Square brackets hold non-standard residues; d marks the D form. Peptide text beside a SMILES is read from it. ξ: configuration not given here. dPhe(4-Cl) = N[C@H](Cc1ccc(Cl)cc1)C(=O)O; 2Nal = N[C@@H](Cc1ccc2ccccc2c1)C(=O)O; Suc = O=C(CCC(=O)[*:2])[*:1]; ξE = NC(CCC(=O)O)C(=O)O; ξDab = NCCC(N)C(=O)O; ξK = NCCCCC(N)C(=O)O; ξDap = NCC(N)C(=O)O; Ava = NCCCCC(=O)O; GABA = NCCCC(=O)O

How the values were obtained:
MC4R [1] = biological target: T1, MC4R (Homo sapiens, UniProt P32245); assay: Competitive binding assay, [125I]-NDP-α-MSH, CHO cell membranes; set-up: expressed in transfected cells; host or cells: Chinese hamster ovary (CHO) cells; settings: for Selectivity Binding IC50 3R/4R: ratio of IC50 hMC-3R / hMC-4R; for Selectivity Binding IC50 5R/4R: ratio of IC50 hMC-5R / hMC-4R
Procedure: The peptides of the present invention were evaluated for […] in receptor binding assay. Crude membrane preparations were obtained from Chinese hamster ovary cells expressing human MC3, MC4, and MC5 receptors. Cells were rinsed with phosphate-buffered saline (PBS) lacking CaCl2 or MgCl2 (Life Technologies, Gaithersburg, Md., USA), and then detached with enzyme-free dissociation media (Specialty Media, Lavellette, N.J., USA). Cells were pelleted at 2800×g for 10 minutes and resuspended in membrane buffer (20 mM Tris, pH 7.2, 5 mM ethylenediaminetetraacetic acid) with 5 μg/ml leupeptin, 5 μg/ml aprotinin, 40 μg/ml bacitracin, and 25 μg/m pefabloc (Boehringer Mannheim). The cells were […] with 10 strokes by using a motor-driven Teflon-coated pestle in a glass homogenizer at low speed. The resulting cell suspension was centrifuged at 4100×g, 4° C., for 20 minutes. The pellet was resuspended in fresh membrane buffer with protease inhibitors, aliquoted, snap-frozen in liquid nitrogen, and stored at −80° C. The resulting crude membranes were titrated to determine the optimal level necessary for performing binding studies. Results
Binding reactions (total volume=[…]) contained MBB (50 mM Tris, pH 7.2, 2 mM CaCl2, 1 mM MgCl2), 0.1% bovine serum albumin, crude membranes prepared from cells expressing human MC3, MC4, or MC5 receptor, 200 pM of [125I]-NDP-α-MSH (Amersham, Arlington Heighs, Ill., USA), and increasing concentrations of unlabeled test compounds dissolved in dimethylsulfoxide (final concentration=2%). Reactions were incubated for 1 hour without shaking and then filtered through 96-well filter plates (Packard), presoaked in 1% polyethyleneimine. Filters were washed 3 times with TNE buffer (50 mM Tris, pH 7.4, 5 mM ethylenediaminetetraacetic acid, 150 mM NaCl), dried and counted by using Microscint-20 in a Topcount scintillation counter (Packard). Nonspecific binding was determined in the presence of 2 μm of unlabeled NDP-α-MSH (Peninsula Laboratories). Active peptides were evaluated in three independent experiments.
Target sequence in this assay (P32245 whole entry): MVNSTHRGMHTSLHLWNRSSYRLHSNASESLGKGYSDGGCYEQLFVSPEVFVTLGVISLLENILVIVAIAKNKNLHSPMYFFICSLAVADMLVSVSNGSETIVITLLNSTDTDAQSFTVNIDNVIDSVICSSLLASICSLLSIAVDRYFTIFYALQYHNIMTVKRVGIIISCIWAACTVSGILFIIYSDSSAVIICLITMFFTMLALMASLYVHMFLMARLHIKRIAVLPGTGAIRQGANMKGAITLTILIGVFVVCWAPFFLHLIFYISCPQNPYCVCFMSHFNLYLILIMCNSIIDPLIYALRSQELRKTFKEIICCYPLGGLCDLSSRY

MC4R [2] = biological target: T1, MC4R; assay: cAMP assay in CHO cells expressing a human melanocortin receptor; assay type: cell-based; set-up: expressed in transfected cells; host or cells: Chinese hamster ovary (CHO) cells; settings: for Selectivity cAMP EC50 3R/4R: ratio of EC50 hMC-3R / hMC-4R; for Selectivity cAMP EC50 5R/4R: ratio of EC50 hMC-5R / hMC-4R
Procedure: (§1) Chinese hamster ovary cells expressing a human melanocortin receptor were rinsed with calcium-and magnesium-free PBS (Life Technologies), and detached from the tissue culture flasks by 5-minutes incubation with enzyme-free dissociation buffer (S-014-B, Specialty Media). Cells were collected by centrifugation and resuspended in Earle's balanced salt solution (Life Technologies) with addition of 10 mM 4-(2-hydroxyethyl)-1-piperazineethanesulfonic acid (Hepes) buffer, pH 7.5, 5 mM MgCl2, 1 mM glutamine, and 1 mg/ml bovine serum albumin to concentration of 1-5×10^6 cells/ml. Subsequently, cells were counted and the cell suspension was treated with the phosphodiesterase inhibitor 3-isobutyl-1-methylxanthine (to concentration of 0.6 mM).
(§2) A test compound was dissolved in dimethyl sulfoxide (DMSO, 10^−3 to 10^−8 M), diluted with buffer and 0.1 volume of the solution was added to 0.9 volumes of the cell suspension (1 to 5×10^5 cells); final concentration of DMSO was 1%. After 45 minutes at room temperature, cells were lysed by incubation at 100° C. for 5 minutes to release accumulated cAMP. Accumulation of cAMP was measured in an aliquot of the cell lysate with the Amersham (Arlington Heights, Ill.) cAMP detection assay kit (RPA556). The amount of cAMP produced in response to a tested compound was compared to the amount of cAMP produced in response to α-MSH, defined as a 100% agonist. All active peptides were characterized in three independent experiments.
Target sequence in this assay (P32245 whole entry): as above

MC5R [3] = biological target: T2, MC5R (Homo sapiens, UniProt P33032); assay: as above; assay type: cell-based; set-up: expressed in transfected cells; host or cells: Chinese hamster ovary (CHO) cells; settings: @ 5 (concentration unit not given); cAMP relative to α-MSH defined as 100% agonist
Procedure: as §1, §2
Target sequence in this assay (P33032 whole entry): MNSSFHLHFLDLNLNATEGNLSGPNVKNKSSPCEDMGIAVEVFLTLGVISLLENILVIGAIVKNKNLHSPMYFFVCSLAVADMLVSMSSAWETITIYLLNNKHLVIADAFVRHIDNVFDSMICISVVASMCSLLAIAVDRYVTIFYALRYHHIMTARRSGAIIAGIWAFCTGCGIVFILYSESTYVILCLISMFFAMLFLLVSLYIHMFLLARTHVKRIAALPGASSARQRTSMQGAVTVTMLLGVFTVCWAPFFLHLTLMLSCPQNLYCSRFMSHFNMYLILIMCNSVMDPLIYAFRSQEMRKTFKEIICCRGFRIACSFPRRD

AA rats = settings: MTII by central infusion; cited from earlier work
C57BL/6J mice = assay: Ethanol consumption following central (i.c.v.) infusion of MC4R agonist; assay type: in vivo; settings: for reduction of alcohol consumption: 20% ethanol, vs aCSF
Description: The generation of Mc3r^−/− mice has been described (Chen, S. et al., Nature Genetics (2000) 26: 97-102). Mc3r^−/− mice are born at the expected frequency and are viable and fertile. […] Studies described below utilized male and female Mc3r^−/− and/or Mc3r^+/+ mice of a C57BL/6J genetic background, 8 to 12 weeks of age at the start of experiment. Non-littermate heterozygous (Mc3r^+/−) mice were bred, resulting in Mc3r^−/− and Mc3r ^+/+ F2 littermate mice. Mice were individually housed in polypropylene cages with wood-chip bedding and had ad libitum access to standard rodent chow (Teklad, Madison, Wis.) and water throughout the experiments except where noted. The colony room was maintained at approximately 22° C. with a 12h:12h light:dark cycle. All procedures used in the present research were in compliance with the National Institute of Health guidelines, and the protocols were approved by the University of North Carolina Animal Care and Use Committee.
Naïve mice were anesthetized with a cocktail of ketamine (117 mg/kg) and xylazine (7.92 mg/kg) and surgically implanted with a 26-gauge cannula (Plastic One, Roanoke, Va.) aimed at the left-lateral ventricle using the following stereotaxic coordinates: 0.2 mm posterior to bregma, 1.0 mm lateral to the midline, and 2.3 mm ventral to the skull surface. Mice were allowed to recover for approximately 2 weeks before experimental procedures were initiated. After experimental procedures, cannula placement was verified histologically. The i.c.v. infusions were given in a 1.0 μl volume with a 5.0 μl Hamilton syringe and infused manually over a one minute period. Mice were acclimated for approximately 2 weeks to drinking from two bottles (continuous 24 hour/day access), one containing water and the other containing 20% ethanol, and body weights were recorded weekly. Following acclimation, mice were distributed to groups based on the last 4-days of baseline ethanol consumption (g/kg/day).
Mice were weighed and ethanol, water, and food were removed from their cages two hours before the beginning of the dark cycle. For the study with i.c.v. infusion of MC4R agonist, C57B1/6J mice were given infusion of either 1.0 or 3.0 μg of the MC4R-selective agonist, cyclo(NH—CH2—CH2—CO-His-D-Phe-Arg-Trp-Glu)-NH2 (Compound A, Phoenix Pharmaceuticals, Inc., Belmont, Calif.) dissolved in aCSF (ns=7 and 8, respectively) or an equal volume of aCSF (n=10) one hour before the beginning of the dark cycle. The 20% ethanol solution, water, and food were returned immediately before the dark cycle and consumption measures were recorded 4 hours and 24 hours later. One-way (drug) ANOVAs were used to assess consumption of 20% ethanol following i.c.v. infusion of MC4R agonist or aCSF.

MC5R [4] = biological target: T2, MC5R; settings: cited from earlier work
Target sequence in this assay (P33032 whole entry, species assumed): as the sequence (P33032 whole entry) above

MC4R [5] = biological target: T1, MC4R; settings: cited from earlier work
Target sequence in this assay (P32245 whole entry, species assumed): as the sequence (P32245 whole entry) above

Compound	Selectivity Binding IC50 3R/4R (MC4R [1])	Selectivity Binding IC50 5R/4R (MC4R [1])	Selectivity cAMP EC50 3R/4R (MC4R [2])	Selectivity cAMP EC50 5R/4R (MC4R [2])	also measured
N=C(N)NCCC[C@@H]1NC(=O)[C@@H](Cc2ccccc2)NC(=O)[C@H](Cc2c[nH]cn2)NC(=O)CCC(=O)NCC(C(N)=O)NC(=O)[C@H](Cc2c[nH]c3ccccc23)NC1=O (stereo partly shown) [Example 3] (H[dF]RW[ξDap]-NH2; linker N-5 via Suc)	22.5	50.7	17.8		cAMP Assay hMC-5R, % @ 5 (MC5R [3]): 12% @ 5
N=C(N)NCCC[C@@H]1NC(=O)[C@@H](Cc2ccccc2)NC(=O)[C@H](Cc2c[nH]cn2)NC(=O)CCC(=O)NCCCCC(C(N)=O)NC(=O)[C@H](Cc2c[nH]c3ccccc23)NC1=O (stereo partly shown) [Example 1] (H[dF]RW[ξK]-NH2; linker N-5 via Suc)	16.7	124	33	357	
N=C(N)NCCC[C@@H]1NC(=O)[C@@H](Cc2ccccc2)NC(=O)[C@H](Cc2c[nH]cn2)NC(=O)CCC(=O)NCCCCC(C(N)=O)NC(=O)[C@H](Cc2ccc3ccccc3c2)NC1=O (stereo partly shown) [Example 5] (H[dF]R[2Nal][ξK]-NH2; linker N-5 via Suc)	33.85	1538	97.3	1351.3	
N=C(N)NCCC[C@@H]1NC(=O)[C@@H](Cc2ccc(Cl)cc2)NC(=O)[C@H](Cc2c[nH]cn2)NC(=O)CCC(=O)NCCCCC(C(N)=O)NC(=O)[C@H](Cc2c[nH]c3ccccc23)NC1=O (stereo partly shown) [Example 4] (H[dPhe(4-Cl)]RW[ξK]-NH2; linker N-5 via Suc)	10	54	54	229.7	
N=C(N)NCCC[C@@H]1NC(=O)[C@@H](Cc2ccccc2)NC(=O)[C@H](Cc2c[nH]cn2)NC(=O)CCCCNC(=O)CCC(C(N)=O)NC(=O)[C@H](Cc2c[nH]c3ccccc23)NC1=O (stereo partly shown) [Example 6] ([Ava]H[dF]RW[ξE]-NH2; lactam N-6)	48	750	70.4	703.7	
N=C(N)NCCC[C@@H]1NC(=O)[C@@H](Cc2ccccc2)NC(=O)[C@H](Cc2c[nH]cn2)NC(=O)CCC(=O)NCCC(C(N)=O)NC(=O)[C@H](Cc2c[nH]c3ccccc23)NC1=O (stereo partly shown) [Example 2] (H[dF]RW[ξDab]-NH2; linker N-5 via Suc)	51.3	205	83	758	
N=C(N)NCCC[C@@H]1NC(=O)[C@@H](Cc2ccccc2)NC(=O)[C@H](Cc2c[nH]cn2)NC(=O)CCCNC(=O)CCC(C(N)=O)NC(=O)[C@H](Cc2c[nH]c3ccccc23)NC1=O (stereo partly shown) [Example 7] ([GABA]H[dF]RW[ξE]-NH2; lactam N-6)	44	121.9	54.39	877	
N=C(N)NCCC[C@@H]1NC(=O)[C@@H](Cc2ccccc2)NC(=O)[C@H](Cc2c[nH]cn2)NC(=O)CNC(=O)CCC(C(N)=O)NC(=O)[C@H](Cc2c[nH]c3ccccc23)NC1=O (stereo partly shown) [Example 9] (GH[dF]RW[ξE]-NH2; lactam N-6)	3.45	3.45	62.86		cAMP Assay hMC-5R, % @ 5 (MC5R [3]): 15% @ 5
MTII					effect on voluntary ethanol drinking (AA rats): significantly reduces voluntary ethanol drinking
cyclo(NH—CH2—CH2—CO-His-D-Phe-Arg-Trp-Glu)-NH2 (FRWE; cyclic with beta-alanine linker, His, C-terminal amide; printed: Phe-Arg-Trp-Glu) [Compound A]					reduction of alcohol consumption (C57BL/6J mice; 1.0 μg i.c.v.): 67%; reduction of alcohol consumption (C57BL/6J mice; 3.0 μg i.c.v.): 86%; effect on ethanol drinking (C57BL/6J mice; C57BL/6J mice): significant reduction of ethanol drinking; less alcohol consumed than untreated controls (C57BL/6J mice; C57BL/6J mice, dose not given): up to 86%; binding and activation of MC5R (MC5R [4]): extremely weak binding and activation of MC5R; selectivity for MC4R over MC3R (MC4R [5]): 90 fold; selectivity for MC4R over MC5R (MC4R [5]): greater than 2000 fold
